Test results as given in patent publication US20160287696A1, “PAN POLLEN IMMUNOGENS AND METHODS AND USES FOR IMMUNE RESPONSE MODULATION” (LA JOLLA INSTITUTE FOR ALLERGY AND IMMUNOLOGY, priority 2013, published 2016).
Values joined by “and” are separate entries in the source; they are usually repeats but may differ in a detail not shown here. Equal values may be shown once.

System: PBMCs from Phl p reactive donors
Assay: Cross-reactivity: IL-5 ELISPOT of PBMCs expanded 14 days with individual peptides, response to pollen extracts
Assay type: cell-based, human
Conditions: for Controls, Relevant Pool: control: response to relevant pool of cells expanded with the peptide; for Bet v % Reactivity: Bet v (tree) pollen extract; for Bet v % Reactivity / Ant o % Reactivity / Cyn d % Reactivity / Lol p % Reactivity / Phl p % Reactivity / Poa p % Reactivity / Amb p % Reactivity / Ole e % Reactivity / Pla l % Reactivity / Que a % Reactivity: reactivity of extract as percentage of reactivity to the peptide, PBMCs expanded 14 days with the peptide; for % Reactivity, Fra e: reactivity of Fra e (tree) pollen extract as percentage of the reactivity to the peptide, cells expanded with the peptide for 14 days; for Ant o % Reactivity: Ant o (grass) pollen extract; for Cyn d % Reactivity: Cyn d (grass) pollen extract; for Lol p % Reactivity: Lol p (grass) pollen extract; for Phl p % Reactivity: Phl p (grass) pollen extract; for Poa p % Reactivity: Poa p (grass) pollen extract; for Controls, Irrelevant Pool: control: response to irrelevant pool of cells expanded with the peptide; for Amb p % Reactivity: Amb p (weed) pollen extract; for Ole e % Reactivity: Ole e (tree) pollen extract; for Pla l % Reactivity: Pla l (weed) pollen extract; for Que a % Reactivity: Que a (tree) pollen extract
Protocol: For each peptide, TG allergic donors were selected that reacted to the peptide after expanding PBMCs in vitro with TG extract. […] Reponses to extracts and peptide pools are expressed as the relative fraction of the response to the peptide itself, and capped at 100%.
Each peptide was used to stimulate cells and cross reactivity was tested for extracts from each pollen species. The number of mismatches (# of mm) for each peptide compared to the pollen species and the reactivity of the extracts as a percentage of the reactivity compared to the peptide are shown.
PBMCs from Phl p reactive donors were expanded with individual PG+ peptides as well as peptides derived from major allergens of Phl p for 14 days (peptides shown in Table 10). For each peptide, the mismatch to a corresponding sequence in a non-grass pollen species or a pollen species other than Phl p were determined. Cytokine IL-5 responses were measured in response to the peptide itself, Phl p extract and extracts of the other pollen species. Reponses to extracts and peptide pools were expressed as the relative fraction of the response to the peptide itself and plotted as a function of conservation of the peptide in the different extracts (FIG. 1).

Sequence | Controls, Relevant Pool | Bet v % Reactivity | % Reactivity, Fra e | Ant o % Reactivity | Cyn d % Reactivity | Lol p % Reactivity | Phl p % Reactivity | Poa p % Reactivity | Controls, Irrelevant Pool | Amb p % Reactivity | Ole e % Reactivity | Pla l % Reactivity | Que a % Reactivity
GELELQFRRVKCKYP | 88 and 53 and 92 and 100 | – | – | – | – | – | – | – | – | – | – | – | –
NVWEVKSSKPLVGPF | 100 and 68 and 94 | 1% and 2% and 5% and 4% and 0% | 0% | – | – | – | – | – | – | – | – | – | –
LAKYKANWIEIMRIK | 31 | – | 14% | 14% | 47% | 33% | 6% | 22% | 19 | – | – | – | –
MRNVFDDVVPADFKV | 81 and 94 and 98 and 100 | 2% and 3% and 1% and 0% | – | – | – | 88% and 82% and 73% and 72% and 100% | – | – | – | – | – | – | –
QYAKEIWGITANPVP | 100 | 73% | 12% | 2% | 10% | 24% | – | 22% | 7 | 83% | 44% | 15% | 32%
INVGFKAAVAAAASV | 100 and 70 and 60 | 1% and 0% | – | – | – | – | – | – | – | – | – | 0% and 9% | 0% and 2%
AVMLTFDNAGMWNVR | 100 | 0% | 0% | 9% | 18% | 36% | 4% | 25% | 0 | 2% | 3% | 9% | 0%
FPIVQRFLEGASSID | – | 5% and 0% | – | 89% and 100% | 22% and 39% | – | – | 95% and 100% | 100 | – | – | – | 0%
NLALSIKYNKEGDSM | 100 | 0% | 0% | 0% | 76% | 76% | 57% | 100% | 0 | 76% | 78% | 41% | 0%
DAYVATLTEALRVIA | 100 and 96 and 67 | – | – | 95% and 90% and 58% and 68% | – | – | – | – | – | – | – | – | 10% and 8% and 0%
DIYNYMEPYVSKVDP | 100 | 0% | 49% | – | 83% | 100% | 30% | 23% | 49 | 37% | 82% | 17% | 0%
STWYGKPTGAGPKDN | – | 0% | 1% and 0% | 51% and 64% | – | 64% and 40% | – | – | – | – | – | – | 1% and 0%
